Data published in patent publication US10202360B2 (CELGENE QUANTICEL RESEARCH, INC., priority 2016, dated 2019).

target: CREBBP (Homo sapiens (Human), UniProt Q92793); experiment: In vitro enzyme inhibition assay - CREBBP inhibition (AlphaScreen, biotinylated H4-tetraacetyl peptide); type: binding; conditions: Table 28; AlphaScreen, H4-tetraacetyl peptide
Method in brief: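 Displacement of 20 nM biotinylated tetraacetyl-H4 peptide from 50 nM E. coli-expressed His-CREBBP, measured by AlphaScreen after bead equilibration for 2 h.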

Chain of CREBBP (Q92793 1081-1197): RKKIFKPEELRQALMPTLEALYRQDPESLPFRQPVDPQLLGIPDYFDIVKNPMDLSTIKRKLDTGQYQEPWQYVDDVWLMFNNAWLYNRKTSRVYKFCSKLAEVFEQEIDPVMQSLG

IC50, < 500 nM:
CC(C)S(=O)(=O)Nc1cc(-c2ccc(=O)n(C)c2)nc(OC2CCCCC2)n1 [Example 247, Propane-2-sulfonic acid [2-cylcohexyloxy-6-(1-methyl-6-oxo-1,6-dihydro-pyridin-3-yl)-pyrimidin-4-yl]-amide]
Cc1cccc(F)c1Oc1nc(NS(=O)(=O)CCC(C)C)cc(-c2ccc(=O)n(C)c2)n1 [Example 248, 3-Methyl-butane-1-sulfonic acid [2-(2-fluoro-6-methyl-phenoxy)-6-(1-methyl-6-oxo-1,6-dihydro-pyridin-3-yl)-pyrimidin-4-yl]-amide]
CCCCS(=O)(=O)Nc1cc(-c2cc(C)c(=O)n(C)c2)nc(OC2CCCCC2)n1 [Example 249, Butane-1-sulfonic acid [2-cyclohexyloxy-6-(1,5-dimethyl-6-oxo-1,6-dihydro-pyridin-3-yl)-pyrimidin-4-yl]-amide]
Cc1cc(-c2cc(NS(=O)(=O)C(C)C)nc(OC3CCCCC3)n2)cn(C)c1=O [Example 250, Propane-2-sulfonic acid [2-cyclohexyloxy-6-(1,5-dimethyl-6-oxo-1,6-dihydro-pyridin-3-yl)-pyrimidin-4-yl]-amide]
CC(C)CCS(=O)(=O)Nc1cc(-c2ccc(=O)n(C)c2)nc(Oc2c(F)cccc2Cl)n1 [Example 251, 3-Mehtyl-butane-1-sulfonic acid [2-(2-chloro-6-fluoro-phenoxy)-6-(1-methyl-6-oxo-1,6-dihydro-pyridin-3-yl)-pyrimidin-4-yl]-amide]
Cc1cccc(Cl)c1Oc1nc(NS(=O)(=O)CCC(C)C)cc(-c2ccc(=O)n(C)c2)n1 [Example 252, 3-Methyl-butane-1-sulfonic acid [2-(2-chloro-6-methyl-phenoxy)-6-(1-methyl-6-oxo-1,6-dihydro-pyridin-3-yl)-pyrimidin-4-yl]-amide]
CCC(CC)S(=O)(=O)Nc1cc(-c2ccc(=O)n(C)c2)nc(Oc2c(C)cccc2F)n1 [Example 253, Pentane-3-sulfonic acid [2-(2-fluoro-6-methyl-pphenoxy)-6-(1-methyl-6-oxo-1,6-dihydro-pyridin-3-yl)-pyrimidin-4-yl]-amide]
CCC(CC)S(=O)(=O)Nc1cc(-c2ccc(=O)n(C)c2)nc(Oc2c(F)cccc2Cl)n1 [Example 254, Pentane-3-sulfonic acid [2-(2-chloro-6-fluoro-phenoxy)-6-(1-methyl-6-oxo-1,6-dihydro-pyridin-3-yl)-pyrimidin-4-yl]-amide]
CCCCS(=O)(=O)Nc1cc(-c2ccc(=O)n(C)c2)nc(Oc2c(F)ccc(C)c2Cl)n1 [Example 255, Butane-1-sulfonic acid [2-(2-chloro-6-fluoro-3-methyl-phenoxy)-6-(1-methyl-6-oxo-1,6-dihydro-pyridin-3-yl)-pyrimidin-4-yl]-amide]
Cc1ccc(F)c(Oc2nc(NS(=O)(=O)C(C)C)cc(-c3ccc(=O)n(C)c3)n2)c1Cl [Example 256, Propane-2-sulfonic acid [2-(2-chloro-6-fluoro-3-methyl-phenoxy)-6-(1-methyl-6-oxo-1,6-dihydro-pyridin-3-yl)-pyrimidin-4-yl]-amide]
CCCCS(=O)(=O)Nc1cc(-c2ccc(=O)n(C)c2)nc(Oc2c(F)ccc(C)c2F)n1 [Example 257, Butane-1-sulfonic acid [2-(2,6-difluoro-3-methyl-phenoxy)-6-(1-methyl-6-oxo-1,6-dihydro-pyridin-3-yl)-pyrimidin-4-yl]-amide]
CCCCS(=O)(=O)Nc1cc(-c2ccc(=O)n(C)c2)nc(Oc2c(Cl)ccc(C)c2F)n1 [Example 258, Butane-1-sulfonic acid [2-(6-chloro-2-fluoro-3-methyl-phenoxy)-6-(1-methyl-6-oxo-1,6-dihydro-pyridin-3-yl)-pyrimidin-4-yl]-amide]
CCC(CC)S(=O)(=O)Nc1cc(-c2ccc(=O)n(C)c2)nc(Oc2c(C)cccc2Cl)n1 [Example 259, Pentane-3-sulfonic acid [2-(2-chloro-6-methyl-phenoxy)-6-(1-methyl-6-oxo-1,6-dihydro-pyridin-3-yl)-pyrimidin-4-yl]-amide]
Cc1ccc(F)c(Oc2nc(NS(=O)(=O)C(C)C)cc(-c3ccc(=O)n(C)c3)n2)c1F [Example 260, Propane-2-sulfonic acid [2-(2,6-difluoro-3-methyl-phenoxy)-6-(1-methyl-6-oxo-1,6-dihydro-pyridin-3-yl)-pyrimidin-4-yl]-amide]
Cc1ccc(Cl)c(Oc2nc(NS(=O)(=O)C(C)C)cc(-c3ccc(=O)n(C)c3)n2)c1F [Example 261, Propane-2-sulfonic acid [2-(6-chloro-2-fluoro-3-methyl-phenoxy)-6-(1-methyl-6-oxo-1,6-dihydro-pyridin-3-yl)-pyrimidin-4-yl]-amide]
Cc1ccc(Cl)c(Oc2nc(NS(=O)(=O)CCC(C)C)cc(-c3ccc(=O)n(C)c3)n2)c1F [Example 262, 3-Methyl-butane-1-sulfonic acid [2-(6-chloro-2-fluoro-3-methyl-phenoxy)-6-(1-methyl-6-oxo-1,6-dihydro-pyridin-3-yl)-pyrimidin-4-yl]-amide]
Cn1cc(-c2cc(NS(=O)(=O)CC3CC3)nc(Oc3c(F)cccc3Cl)n2)ccc1=O [Example 263, N-[2-(2-Chloro-6-fluoro-phenoxy)-6-(1-methyl-6-oxo-1,6-dihydro-pyridin-3-yl)-pyrimidin-4-yl]-C-cyclopropyl-methanesulfonamide]
Cc1cccc(Cl)c1Oc1nc(NS(=O)(=O)CC2CC2)cc(-c2ccc(=O)n(C)c2)n1 [Example 264, N-[2-(2-Chloro-6-methyl-phenoxy)-6-(1-methyl-6-moxo-1,6-dihydro-pyridin-3-yl)-pyrimidin-4-yl]-C-cyclopropyl-methanesulfonamide]
Cc1ccc(F)c(Oc2nc(NS(=O)(=O)CCC(C)C)cc(-c3ccc(=O)n(C)c3)n2)c1Cl [Example 265, 3-Methyl-butane-1-sulfonic acid [2-(2-chloro-6-fluoro-3-methyl-phenoxy)-6-(1-methyl-6-oxo-1,6-dihydro-pyridin-3-yl)-pyrimidin-4-yl]-amide]
Cc1cccc(Cl)c1Oc1nc(NS(=O)(=O)CCC2CC2)cc(-c2ccc(=O)n(C)c2)n1 [Example 266, 2-Cyclopropyl-ethanesulfonic acid [2-(2-chloro-6-methyl-phenoxy)-6-(1-methyl-6-oxo-1,6-dihydro-pyridin-3-yl)-pyrimidin-4-yl]-amide]
Cn1cc(-c2cc(NS(=O)(=O)CCC3CC3)nc(Oc3c(F)cccc3Cl)n2)ccc1=O [Example 268, 2-Cyclopropyl-ethanesulfonic acid [2-(2-chloro-6-fluoro-phenoxy)-6-(1-methyl-6-oxo-1,6-dihydro-pyridin-3-yl)-pyrimidin-4-yl]-amide]
Cc1cc(-c2cc(N)nc(Oc3ccc(F)cc3F)n2)cn(C)c1=O [Example 270, 5-(6-amino-2-(2,4-difluorophenoxy)pyrimidin-4-yl)-1,3-dimethy-lpyridin-2(1H)-one]
Cc1cc(-c2cc(NCCc3ccccc3)nc(Oc3ccc(F)cc3F)n2)cn(C)c1=O [Example 271, 5-(2-(2,4-difluorophenoxy)-6-(phenethylamino)pyrimidin-4-yl)-1,3-dimethylpyridin-2(1H)-one]
Cc1cc(-c2cc(NCc3ccccc3)nc(Oc3ccc(F)cc3F)n2)cn(C)c1=O [Example 272, 5-(6-(benzylamino)-2-(2,4-difluorophenoxy)pyrimidin-4-yl)-1,3-dimethylpyridin-2(1H)-one]
Cn1cc(-c2cc(NCc3ccccc3)nc(Oc3ccc(F)cc3F)n2)ccc1=O [Example 274, 5-(6-(benzylamino)-2-(2,4-difluorophenoxy)pyrimidin-4-yl)-1-methylpyridin-2(1H)-one]
CN(Cc1ccccc1)c1cc(-c2ccc(=O)n(C)c2)nc(Oc2ccc(F)cc2F)n1 [Example 275, 5-(6-(benzyl(methyl)amino)-2-(2,4-difluorophenoxy)pyrimidin-4-yl)-1-methylpyridin-2(1H)-one]
Cn1cc(-c2cc(Nc3ccccc3)nc(Oc3ccc(F)cc3F)n2)ccc1=O [Example 276, 5-(2-(2,4-difluorophenoxy)-6-(phenylamino)pyrimidin-4-yl)-1-methylpyridin-2(1H)-one]
CCN(CC)c1cc(-c2ccc(=O)n(C)c2)nc(Oc2ccc(F)cc2F)n1 [Example 277, 5-(6-(diethylamino)-2-(2,4-difluorophenoxy)pyrimidin-4-yl)-1-methylpyridin-2(1H)-one]
CCOc1ccc(C(C)Nc2cc(-c3ccc(=O)n(C)c3)nc(Oc3c(C)cccc3F)n2)cc1 (stereo not shown) [Example 278, 5-(6-((1-(4-ethoxyphenyl)ethyl)amino)-2-(2-fluoro-6-methylphenoxy)pyrimidin-4-yl)-1-methylpyridin-2(1H)-one]
CCc1ccc(C(C)Nc2cc(-c3ccc(=O)n(C)c3)nc(Oc3c(C)cccc3F)n2)cc1 (stereo not shown) [Example 279, 5-(6-((1-(4-ethylphenyl)ethyl)amino)-2-(2-fluoro-6-methylphenoxy)pyrimidin-4-yl)-1-methylpyridin-2(1H)-one]
Cc1cccc(F)c1Oc1nc(NC2CCCc3ccccc32)cc(-c2ccc(=O)n(C)c2)n1 (stereo not shown) [Example 280, 5-(2-(2-fluoro-6-methylphenoxy)-6-((1,2,3,4-tetrahydronaphthalen-1-yl)amino)pyrimidin-4-yl)-1-methylpyridin-2(1H)-one]
